Laboratory results as given in patent EP3366672B9, “BIPHENYL COMPOUND AND APPLICATION THEREOF” (Shenyang Sinochem Agrochemicals R & D Co., Ltd., priority 2015, dated 2017).

Legend:
Format in all cases: in vivo
[1] = test system: egg of spider mite (Tetranychuscinnabarinus); experiment: Greenhouse test against egg of spider mite, spray on bean leaf; conditions: eggs, after 5 days
Procedure: Two true leaves of bean plants were taken and one true leaf was removed. Then ten healthy female adult spider mites were put into the true leaf. The adult spider mites were removed after 24 h and the eggs were investigated. The solution of certain concentrations of test compounds was sprayed by using a sprinkler. Three replicates were set for each treatment. The untreated eggs were all incubated after 5 days. The unincubation of treated eggs in leaf was observed, and incubation inhibition rate of the eggs was determined.

[2] = test system: citrus red mite (Panonychuscitri); experiment: Field trial against citrus red mite (Jiangxi, China)
Procedure: The trial was carried out in a 2-year-old Shatang orange orchard in Ganzhou city Jiangxi province, trifoliate orange trees were selected as stocks, the intervals between two plants was 1.50 × 2.50 m, the average height was 1.45 m and the crown width was 1.30 m. Two trees were selected in each plot, with random arrangement and 4 replications. Compound 1 (10% SC) was set at three different doses (100 mg/L, 50 mg/L and 25 mg/L), spirodiclofen (29% SC) was set at one dose (50 mg/L), and pyridaben (20% EC) was set at one dose (100 mg/L). MatabiSupergreen 16 Knapsack Sprayer 16 Liter was used to spray evenly with 2L of spraying volume for each plant. The plants were treated once in May at that time, adults, nymphs, eggs of citrus red mite all existed, with adults/eggs = 1/1.2. During the day the plants were treated, and the weather was good with the average temperature at 24°C. The first three days after treatment were all clear days. The number of mites was investigated before treatment and on the 1st, 3rd, 7th, 14th, 22nd and 28th day after treatment respectively. Two trees of each plot were investigated according to the five directions of the tree crown (east, south, west, north and central), 5 leaves in each direction were investigated to calculate the number of living mites, with 50 leaves each plot. The decline rate of mite population and corrected efficacy were calculated according to formulas below: The decline rate of mite population(%) = [(the average number of mite on each leaf; before treatment−the average number of mite on each leaf after treatment)/the; average number of mite on each leaf before treatment] × 100. [formula] Corrected efficacy(%) = [(the decline rate of mite population in treated area−the; decline rate of mite population in untreated area)/(100−the decline rate of mite; population in untreated area)] × 100. [formula]

[3] = test system: deutonymph of spider mite (Tetranychuscinnabarinus); experiment: Greenhouse test against deutonymph of spider mite, spray on bean leaves; conditions: after 72 h
Procedure: Ten healthy female adult spider mites (Tetranychuscinnabarinus) were put into two true leaves of bean plants. The adult spider mites were removed after 24 h and the eggs were to be continued incubating. After ten days, the number of deutonymph were investigated and recorded. The solution of certain concentrations of test compounds was sprayed by using a sprinkler. Three replicates were set for each treatment. Then the deutonymph of spider mites were maintained in standard observation room. After 72 h, the survival mites in each leaf were observed, and mortality of the mites was determined.

Compound | Incubation inhibition rate (%) ([1]; 1mg/L) | Incubation inhibition rate (%) ([1]; 5mg/L) | Incubation inhibition rate (%) [1] [%] | Corrected efficacy (%) ([2]; 50 mg/L, The 1st day after treatment) | Corrected efficacy (%) ([2]; 50 mg/L, The 3rd day after treatment) | Corrected efficacy (%) ([2]; 50 mg/L, The 7th day after treatment) | Corrected efficacy (%) ([2]; 50 mg/L, The 14th day after treatment) | Corrected efficacy (%) ([2]; 50 mg/L, The 22nd day after treatment) | Corrected efficacy (%) ([2]; 50 mg/L, The 28th day after treatment) | Mortality (%) ([3]; 0.25mg/L) | Mortality (%) ([3]; 0.5mg/L) | Mortality (%) ([3]; 1mg/L) | Corrected efficacy (%) ([2]; 100 mg/L, The 1st day after treatment) | Corrected efficacy (%) ([2]; 100 mg/L, The 3rd day after treatment) | Corrected efficacy (%) ([2]; 100 mg/L, The 7th day after treatment) | Corrected efficacy (%) ([2]; 100 mg/L, The 14th day after treatment) | Corrected efficacy (%) ([2]; 100 mg/L, The 22nd day after treatment) | Corrected efficacy (%) ([2]; 100 mg/L, The 28th day after treatment)
CCC(C)(C)C(=O)OC1=C(c2ccc(Cl)cc2Cl)C(=O)OC12CCCCC2 [spirodiclofen] | 37 | 100 | 13 | 20 | 48 | 63 | 80 | 71 | 70 | – | – | – | – | – | – | – | – | –
CC(C)(C)c1ccc(CSc2cnn(C(C)(C)C)c(=O)c2Cl)cc1 [pyridaben] | – | – | – | – | – | – | – | – | – | 25 | 60 | 84 | 0 | 65 | 90 | 93 | 92 | 95
